Measurements: patent US7935817B2, “Salt form and cocrystals of adefovir dipivoxil and processes for preparation thereof” (Apotex Pharmachem Inc., priority 2008, dated 2011)
In brackets after ≈: the same amount, converted by molar mass. Entries after “also recorded” stand apart in the source; their conditions may differ. Like-named read-outs stand apart in the source and are kept apart here.

Tests used:
[1] = stability studies: HPLC purity after storage at 40° C./75% relative humidity; format: physicochemical
[2] = cited from earlier work
[3] = pH 7; cited from earlier work
[4] = after 1 week at 40° C./75% R.H.

For `CC(C)(C)C(=O)OCOP(=O)(COCCn1cnc2c(N)ncnc21)OCOC(=O)C(C)(C)C.NC(=O)c1cccnc1` [ADE:NIC, adefovir dipivoxil:nicotinamide], the “decrease of HPLC purity” value [1, 4] was “no decrease; also recorded: unchanged” and the “decrease of HPLC purity” value ([1]; after 4 weeks at 40° C./75% R.H.) was 0.06%.

In the case of `CC(C)(C)C(=O)OCOP(=O)(COCCn1cnc2c(N)ncnc21)OCOC(=O)C(C)(C)C` [Adefovir dipivoxil, 9-[2-[[bis[(pivaloyloxy)methoxy]phosphinyl]-methoxy]ethyl]adenine], the aqueous solubility ([2]; pH 2.0) is listed as 19000 µg/mL (≈ 37.9 mM), the aqueous solubility ([2]; pH 7.2) is listed as 400 µg/mL (≈ 0.798 mM) and the “octanol/aqueous phosphate buffer partition coefficient (log p)” value [3] is listed as 1.91.

For `CC(C)(C)C(=O)OCOP(=O)(COCCn1cnc2c(N)ncnc21)OCOC(=O)C(C)(C)C` [amorphous adefovir dipivoxil, 9-[2-[[bis[(pivaloyloxy)methoxy]phosphinyl]-methoxy]ethyl]adenine], the “decrease of HPLC purity” value [1, 4] was “more than 1%”, the “decrease of HPLC purity” value ([1]; after 2 weeks at 40° C./75% R.H.) was 2% and the “decrease of HPLC purity per week” value ([1]; storage at 40° C./75% relative humidity, over 2 weeks) was 1 % per week.
